Measured values reported in the NIST ThermoML archive (doi:10.1021/je900596d).

Details: for mass density: Vibrating tube method

FC(F)=C(F)C(F)(F)F [hexafluoropropene]
Details | mass density [kg/m3] | vapor or sublimation pressure [kPa]
283.17 K, 6464.6 kPa, Liquid | 1420.83 | –
283.17 K, 6531.5 kPa, Liquid | 1421.22 | –
283.17 K, 6599.8 kPa, Liquid | 1421.62 | –
283.17 K, 6668.2 kPa, Liquid | 1422.01 | –
283.17 K, 6734.8 kPa, Liquid | 1422.36 | –
283.17 K, 6802 kPa, Liquid | 1422.82 | –
283.17 K, 6878.8 kPa, Liquid | 1423.17 | –
283.17 K, 6945.1 kPa, Liquid | 1423.6 | –
283.17 K, 7018.8 kPa, Liquid | 1423.92 | –
283.17 K, 7085.3 kPa, Liquid | 1424.29 | –
283.17 K, 7154.4 kPa, Liquid | 1424.62 | –
283.17 K, 7220.3 kPa, Liquid | 1425.09 | –
283.17 K, 7293 kPa, Liquid | 1425.48 | –
283.17 K, 7359.6 kPa, Liquid | 1425.9 | –
283.17 K, 7428.2 kPa, Liquid | 1426.22 | –
283.17 K, 7493.3 kPa, Liquid | 1426.61 | –
283.17 K, 7562.9 kPa, Liquid | 1426.95 | –
283.17 K, 7634.7 kPa, Liquid | 1427.34 | –
283.17 K, 7780.3 kPa, Liquid | 1428.05 | –
283.17 K, 7854.7 kPa, Liquid | 1428.44 | –
283.17 K, 7922.9 kPa, Liquid | 1428.82 | –
283.17 K, 7991.9 kPa, Liquid | 1429.21 | –
283.17 K, 8053 kPa, Liquid | 1429.55 | –
283.17 K, 8093.3 kPa, Liquid | 1429.79 | –
283.17 K, 8134.7 kPa, Liquid | 1429.94 | –
283.17 K, 8175.7 kPa, Liquid | 1430.23 | –
283.17 K, 8222.2 kPa, Liquid | 1430.51 | –
283.17 K, 8262.6 kPa, Liquid | 1430.66 | –
283.17 K, 8310.9 kPa, Liquid | 1430.87 | –
283.17 K, 8353.2 kPa, Liquid | 1431.08 | –
283.17 K, 8393.4 kPa, Liquid | 1431.32 | –
283.17 K, 8434 kPa, Liquid | 1431.55 | –
283.17 K, 8474.2 kPa, Liquid | 1431.73 | –
283.17 K, 8517.4 kPa, Liquid | 1432.02 | –
283.17 K, 8563.4 kPa, Liquid | 1432.23 | –
283.17 K, 8609.7 kPa, Liquid | 1432.53 | –
283.17 K, 8651.7 kPa, Liquid | 1432.69 | –
283.17 K, 8693.8 kPa, Liquid | 1432.88 | –
283.17 K, 8735.7 kPa, Liquid | 1433.12 | –
283.17 K, 8779.9 kPa, Liquid | 1433.38 | –
283.17 K, 8821.1 kPa, Liquid | 1433.52 | –
283.17 K, 8871.9 kPa, Liquid | 1433.93 | –
283.17 K, 8912.3 kPa, Liquid | 1434 | –
283.17 K, 8953.6 kPa, Liquid | 1434.33 | –
283.17 K, 8996.5 kPa, Liquid | 1434.45 | –
283.17 K, 9044.1 kPa, Liquid | 1434.75 | –
283.17 K, 9090.4 kPa, Liquid | 1435.02 | –
283.17 K, 9132.2 kPa, Liquid | 1435.25 | –
283.17 K, 9176.2 kPa, Liquid | 1435.35 | –
283.17 K, 9217 kPa, Liquid | 1435.66 | –
283.17 K, 9261 kPa, Liquid | 1435.85 | –
283.17 K, 9303.9 kPa, Liquid | 1436.08 | –
283.17 K, 9347.1 kPa, Liquid | 1436.32 | –
283.17 K, 9392.3 kPa, Liquid | 1436.51 | –
283.17 K, 9439 kPa, Liquid | 1436.78 | –
283.17 K, 9480.9 kPa, Liquid | 1436.91 | –
283.17 K, 9522.3 kPa, Liquid | 1437.19 | –
283.17 K, 9569.5 kPa, Liquid | 1437.37 | –
283.17 K, 9612.2 kPa, Liquid | 1437.57 | –
283.17 K, 9656.4 kPa, Liquid | 1437.81 | –
283.17 K, 9696.9 kPa, Liquid | 1438.08 | –
283.17 K, 9737.5 kPa, Liquid | 1438.29 | –
283.17 K, 9778 kPa, Liquid | 1438.42 | –
283.17 K, 9820 kPa, Liquid | 1438.63 | –
283.17 K, 9860.9 kPa, Liquid | 1438.96 | –
283.17 K, 9908.7 kPa, Liquid | 1439.08 | –
283.17 K, 9991.1 kPa, Liquid | 1439.48 | –
283.23 K, Liquid, Closed cell (Static) method | – | 459
283.24 K, 3.6 kPa, Fluid (supercritical or subcritical phases) | 0.14 | –
283.24 K, 4 kPa, Fluid (supercritical or subcritical phases) | 0.18 | –
283.24 K, 4.5 kPa, Fluid (supercritical or subcritical phases) | 0.18 | –
283.24 K, 5.1 kPa, Fluid (supercritical or subcritical phases) | 0.27 | –
283.24 K, 6 kPa, Fluid (supercritical or subcritical phases) | 0.3 | –
283.24 K, 7.2 kPa, Fluid (supercritical or subcritical phases) | 0.31 | –
283.24 K, 8.2 kPa, Fluid (supercritical or subcritical phases) | 0.4 | –
283.24 K, 9.1 kPa, Fluid (supercritical or subcritical phases) | 0.47 | –
283.24 K, 9.8 kPa, Fluid (supercritical or subcritical phases) | 0.52 | –
283.24 K, 10.8 kPa, Fluid (supercritical or subcritical phases) | 0.56 | –
283.24 K, 11.8 kPa, Fluid (supercritical or subcritical phases) | 0.65 | –
283.24 K, 12.6 kPa, Fluid (supercritical or subcritical phases) | 0.7 | –
283.24 K, 13.4 kPa, Fluid (supercritical or subcritical phases) | 0.85 | –
283.24 K, 14.4 kPa, Fluid (supercritical or subcritical phases) | 0.85 | –
283.24 K, 15.2 kPa, Fluid (supercritical or subcritical phases) | 0.87 | –
283.24 K, 16 kPa, Fluid (supercritical or subcritical phases) | 0.88 | –
283.24 K, 17 kPa, Fluid (supercritical or subcritical phases) | 0.98 | –
283.24 K, 18.1 kPa, Fluid (supercritical or subcritical phases) | 1.01 | –
283.24 K, 19.2 kPa, Fluid (supercritical or subcritical phases) | 1.12 | –
283.24 K, 20.3 kPa, Fluid (supercritical or subcritical phases) | 1.19 | –
283.24 K, 21.5 kPa, Fluid (supercritical or subcritical phases) | 1.25 | –
283.24 K, 22.7 kPa, Fluid (supercritical or subcritical phases) | 1.31 | –
283.24 K, 23.9 kPa, Fluid (supercritical or subcritical phases) | 1.47 | –
283.24 K, 25.1 kPa, Fluid (supercritical or subcritical phases) | 1.47 | –
283.24 K, 26.3 kPa, Fluid (supercritical or subcritical phases) | 1.57 | –
283.24 K, 27.6 kPa, Fluid (supercritical or subcritical phases) | 1.66 | –
283.24 K, 28.8 kPa, Fluid (supercritical or subcritical phases) | 1.74 | –
283.24 K, 30 kPa, Fluid (supercritical or subcritical phases) | 1.8 | –
283.24 K, 31.2 kPa, Fluid (supercritical or subcritical phases) | 1.87 | –
283.24 K, 32.6 kPa, Fluid (supercritical or subcritical phases) | 1.92 | –
283.24 K, 33.8 kPa, Fluid (supercritical or subcritical phases) | 2.04 | –
283.24 K, 35.1 kPa, Fluid (supercritical or subcritical phases) | 2.16 | –
283.24 K, 36.3 kPa, Fluid (supercritical or subcritical phases) | 2.23 | –
283.24 K, 37.6 kPa, Fluid (supercritical or subcritical phases) | 2.25 | –
283.24 K, 38.8 kPa, Fluid (supercritical or subcritical phases) | 2.33 | –
283.24 K, 40.1 kPa, Fluid (supercritical or subcritical phases) | 2.39 | –
283.24 K, 41.4 kPa, Fluid (supercritical or subcritical phases) | 2.51 | –
283.24 K, 42.6 kPa, Fluid (supercritical or subcritical phases) | 2.65 | –
283.24 K, 43.9 kPa, Fluid (supercritical or subcritical phases) | 2.74 | –
283.24 K, 45.1 kPa, Fluid (supercritical or subcritical phases) | 2.76 | –
283.24 K, 46.4 kPa, Fluid (supercritical or subcritical phases) | 2.84 | –
283.24 K, 47.7 kPa, Fluid (supercritical or subcritical phases) | 2.93 | –
283.24 K, 49 kPa, Fluid (supercritical or subcritical phases) | 3.04 | –
283.24 K, 50.2 kPa, Fluid (supercritical or subcritical phases) | 3.09 | –
283.24 K, 52.8 kPa, Fluid (supercritical or subcritical phases) | 3.28 | –
283.24 K, 55.4 kPa, Fluid (supercritical or subcritical phases) | 3.44 | –
283.24 K, 58.1 kPa, Fluid (supercritical or subcritical phases) | 3.61 | –
283.24 K, 60.8 kPa, Fluid (supercritical or subcritical phases) | 3.81 | –
283.24 K, 63.5 kPa, Fluid (supercritical or subcritical phases) | 3.98 | –
283.24 K, 69.3 kPa, Fluid (supercritical or subcritical phases) | 4.38 | –
283.24 K, 72.2 kPa, Fluid (supercritical or subcritical phases) | 4.52 | –
283.24 K, 75.2 kPa, Fluid (supercritical or subcritical phases) | 4.75 | –
283.24 K, 78.1 kPa, Fluid (supercritical or subcritical phases) | 4.95 | –
283.24 K, 81.2 kPa, Fluid (supercritical or subcritical phases) | 5.2 | –
283.24 K, 84.2 kPa, Fluid (supercritical or subcritical phases) | 5.34 | –
283.24 K, 87.2 kPa, Fluid (supercritical or subcritical phases) | 5.58 | –
283.24 K, 90.3 kPa, Fluid (supercritical or subcritical phases) | 5.77 | –
283.24 K, 93.4 kPa, Fluid (supercritical or subcritical phases) | 6 | –
283.24 K, 96.5 kPa, Fluid (supercritical or subcritical phases) | 6.19 | –
283.24 K, 99.6 kPa, Fluid (supercritical or subcritical phases) | 6.44 | –
283.24 K, 102 kPa, Fluid (supercritical or subcritical phases) | 6.55 | –
283.24 K, 104.4 kPa, Fluid (supercritical or subcritical phases) | 6.69 | –
283.24 K, 106.7 kPa, Fluid (supercritical or subcritical phases) | 6.88 | –
283.24 K, 109.2 kPa, Fluid (supercritical or subcritical phases) | 7.05 | –
283.24 K, 111.6 kPa, Fluid (supercritical or subcritical phases) | 7.23 | –
